{"source": "patent US12123876B2", "about": "“Antibody binding to HEG1 and use of the antibody for detection and treatment of mesothelioma” (Kanagawa Prefectural Hospital Organization, priority 2016, dated 2024)", "key": {"SKM9-2 antibody": {"test_system": "SKM9-2 antibody", "assay": "Western blot reactivity of human HEG1 fragments expressed in ACC-MESO-1 with SKM9-2 antibody", "format": "binding, mouse", "conditions": "for Binding to SKM9-2 antibody (positive/negative): Western blot of cell lysate", "experimental": "In this Example, the mesothelioma cell line ACC-MESO-1 was allowed to express a human HEG1 fragment with the endogenous HEG1 of ACC-MESO-1 knocked down, and the reactivity with the SKM9-2 antibody was examined. Subsequently, the reactivity with the antibody was tested for the epitope region through alanine scanning, and key amino acids for binding to the antibody were determined.\nGene transfer was performed with HEG1 siRNA (H9106) (SEQ ID NOs: 40, 41) and human HEG1 for the mesothelioma cell line ACC-MESO-1, and the reactivity of the SKM9-2 was examined through Western blot analysis. A full length protein (HEG1 full length) or a fragment (HEG1 3 kb, HEG1 2 kb, or HEG1 1 kb) of the human HEG1 was used. The full length human HEG1 protein, a protein having the amino acid sequence set forth in SEQ ID NO: 35, was obtained through inserting a base sequence set forth in SEQ ID NO: 34 into pFLAG-CMV1 (Sigma-Aldrich Japan K.K.) to obtain a plasmid, transforming the plasmid, and allowing the mesothelioma cell line to express the plasmid. Fragment HEG1 3 kb was obtained through inserting a fragment corresponding to a sequence from position 285, leucine, to position 1387, phenylalanine, of SEQ ID NO: 35 into pFLAG-CMV1 (Sigma-Aldrich Japan K.K.) in an in-frame manner, and allowing the mesothelioma cell line to express the resultant. HEG1 2 kb and HEG1 1 kb were obtained through allowing the mesothelioma cell line to express products similarly obtained from a fragment corresponding to a sequence from position 677, leucine, to position 1387, phenylalanine, of SEQ ID NO: 35 and a fragment corresponding to a sequence from position 992, valine, to position 1387, phenylalanine, of SEQ ID NO: 35, respectively. Each cell lysate was analyzed through Western blot with the SKM9-2 antibody.\nFurther, the region in exon 7 of HEG1 was analyzed in detail. […]"}, "[1]": {"target": "recombinant human intelectin-1 (Homo sapiens, UniProt Q8WWA0, V109D)", "sequence (Q8WWA0 19-298 V109D)": "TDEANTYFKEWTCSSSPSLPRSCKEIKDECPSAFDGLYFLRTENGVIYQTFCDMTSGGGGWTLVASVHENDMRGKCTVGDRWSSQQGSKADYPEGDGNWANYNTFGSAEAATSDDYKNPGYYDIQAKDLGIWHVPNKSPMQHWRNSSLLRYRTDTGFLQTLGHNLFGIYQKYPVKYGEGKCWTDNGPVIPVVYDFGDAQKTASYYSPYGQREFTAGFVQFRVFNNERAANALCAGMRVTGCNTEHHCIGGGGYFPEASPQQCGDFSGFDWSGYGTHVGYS", "assay": "Biacore inhibition of intelectin binding to diol structure", "conditions": "inhibition of intelectin (0.5 μg/mL) binding", "experimental": "The binding between intelectin and the diol SEPHAROSE® (crosslinked, beaded-form of agarose) beads was inhibited in the presence of another compound with diol structure. An experiment was conducted in which binding of recombinant human intelectin-1 to a sensor chip including 3-Amino-1-propanediol fixed thereto via amino groups was measured by using a Biacore (GE Healthcare Bio-Sciences AB) in the presence of various compounds serially diluted, where intelectin was used with a final concentration of 0.5 μg/mL, and 10 mM HEPES buffer (pH 7.0) containing 1 mM CaCl2), 150 mM NaCl, and 0.03% TWEEN® 20 (polyethylene glycol sorbitan monolaurate, polyoxyethylenesorbitan monolaurate) was used as buffer for measurement, and the binding rate of intelectin was determined for each sample as the degree of binding of intelectin measured for a sample without addition of compound was defined as a binding rate of 100%."}, "HEK-293T cells": {"test_system": "HEK-293T cells", "assay": "Cell proliferation after HEG1 siRNA, HEK-293T", "format": "cell-based", "conditions": "which do not express HEG1"}, "NCI-H2452 cells": {"test_system": "NCI-H2452 cells", "assay": "Cell proliferation after HEG1 knock-down, NCI-H2452", "format": "cell-based", "conditions": "NCI-H2452, another mesothelioma cell line"}}, "note": "pIC50: −log10 of the molar value. Entries after “also recorded” stand apart in the source; their conditions may differ.", "data": [{"molecule": "7.6231: SEQ ID NO: 49 (SKSPSLVSLPTE) bonded to SLURPgpi (GGSKSPSLVSLPTEGG; 7.6231 - SLURPgpi (7.6231))", "values": [{"measurement": "Binding to SKM9-2 antibody (positive/negative)", "setting": "SKM9-2 antibody", "value": "positive"}, {"measurement": "Binding to SKM9-2 antibody (positive/negative)", "setting": "SKM9-2 antibody; listed as fragment 7.6231", "value": "positive signal"}, {"measurement": "Reaction with SKM9-2 antibody after neuraminidase treatment", "setting": "SKM9-2 antibody; lysate treated with neuraminidase, listed as fragment 7.6231", "value": "disappeared; also recorded: does not react"}]}, {"molecule": "CCC(O)CO", "note": "(stereo not shown) [1,2-Butanediol]", "values": [{"measurement": "pIC50", "setting": "[1]", "value": "≥ 3.00"}]}, {"molecule": "CC(O)CO", "note": "(stereo not shown) [1,2-Propanediol]", "values": [{"measurement": "pIC50", "setting": "[1]", "value": 3.05}]}, {"molecule": "C[C@@H](O)CO", "note": "[(R)-1,2-Propanediol]", "values": [{"measurement": "pIC50", "setting": "[1]", "value": 3.00}]}, {"molecule": "O=C[C@H](O)[C@H](O)[C@H](O)CO", "note": "[D-Ribose]", "values": [{"measurement": "pIC50", "setting": "[1]", "value": "≥ 3.00"}]}, {"molecule": "OCC(O)CO", "note": "[Glycerol]", "values": [{"measurement": "pIC50", "setting": "[1]", "value": "≥ 3.00"}]}, {"molecule": "O=C1O[C@H]([C@@H](O)CO)C(O)=C1O", "note": "[L-Ascorbic acid]", "values": [{"measurement": "pIC50", "setting": "[1]", "value": "≥ 3.00"}]}, {"molecule": "O=C[C@@H](O)[C@@H](O)[C@@H](O)CO", "note": "[L-Ribose]", "values": [{"measurement": "pIC50", "setting": "[1]", "value": "≥ 3.00"}]}, {"molecule": "CCCC(=O)OCC(O)CO", "note": "(stereo not shown) [Monobutyrin]", "values": [{"measurement": "pIC50", "setting": "[1]", "value": 3.10}]}, {"molecule": "H2674: siRNA for human HEG1; sense SEQ ID NO: 25 CCUAUAGCCGUACAGACUACA, antisense SEQ ID NO: 26; called HEG1 siRNA in b178 (antisense UAGUCUGUACGGCUAUAGGGC; listed as RNA, chemistry not given here)", "values": [{"measurement": "Cell proliferation", "setting": "HEK-293T cells", "value": "not affected"}, {"measurement": "Cell proliferation", "setting": "NCI-H2452 cells", "value": "suppressed cell proliferation"}]}]}
